# Measurements published in ChEMBL document CHEMBL3751833, “Discovery of potent aryl-substituted 3-[(3-methylpyridine-2-carbonyl) amino]-2,4-dimethyl-benzoic acid EP4 antagonists with improved pharmacokinetic profile” (Bioorg Med Chem Lett, 2016).
# pIC50, pKi: −log10 of the molar value. Active and inactive are the calls of the source. The rule behind the calls is not given here.
# Tests used:
# [1] = molecular target: T1, Prostaglandin E2 receptor EP4 subtype (Homo sapiens, UniProt P35408); test: Antagonist activity at human EP4 receptor expressed in HEK293 cells assessed as inhibition of PGE2-stimulated cAMP production after 1 hr by HTRF assay; format: functional, cell-based
# [2] = Aqueous solubility of compound at pH 6 after 20 hrs by HPLC analysis; format: physicochemical
# [3] = molecular target: T1, Prostaglandin E2 receptor EP4 subtype; test: Antagonist activity at EP4 receptor in LPS-stimulated human whole blood assessed as inhibition of PGE2-induced TNF-alpha release pretreated for 30 mins followed by addition of PGE2 measured after 20 to 24 hrs by immunoassay; format: tissue-based
# Rattus norvegicus [4] = test: (§1) Oral bioavailability in rat at 5 mg/kg; format: ADME, organism-based; details: in vivo
# Rattus norvegicus [5] = test: (§2) AUC in rat at 5 mg/kg, po; format: ADME, organism-based; details: in vivo
# [6] = Clearance in rat at 1 mg/kg, iv; format: ADME, organism-based; details: in vivo
# [7] = as §1; format: ADME, organism-based; details: in vivo
# [8] = as §2; format: ADME, organism-based; details: in vivo
# [9] = molecular target: Muscarinic acetylcholine receptor M2 (Homo sapiens) (UniProt P08172); test: Inhibition of human muscarinic M2 receptor at 10 uM
# Rattus norvegicus [10] = test: Analgesic activity in […]-induced rat joint pain model assessed as inhibition of differential weight bearing at 5 mg/kg, po measured 30 mins post dose; format: functional, organism-based
# [11] = Cmax in rat at 5 mg/kg, po; format: ADME, organism-based; design: dose 5 mg/kg, route oral; details: in vivo
# [12] = molecular target: Prostaglandin E2 receptor EP3 subtype (Homo sapiens, UniProt P43115); test: Binding affinity to human EP3 receptor
# [13] = Volume of distribution at steady state in dog at 1 mg/kg, iv and 5 mg/kg, po; format: ADME, organism-based, Canis lupus familiaris; details: in vivo, read-out: Vdss
# [14] = molecular target: Acetylcholinesterase (Homo sapiens) (UniProt P22303); test: Inhibition of human acetylcholinesterase at 10 uM
# [15] = molecular target: Sodium-dependent noradrenaline transporter (Homo sapiens) (UniProt P23975); test: Inhibition of human Noradrenaline transporter at 10 uM
# [16] = molecular target: L-type calcium channel, verapamil binding site (Homo sapiens, UniProt O60840+Q01668+Q13698+Q13936); test: Inhibition of L-type calcium channel verapamil binding site (unknown origin) at 10 uM; format: protein assay
# [17] = AUC in dog at 5 mg/kg, po; format: ADME, organism-based, Canis lupus familiaris; details: in vivo
# [18] = Clearance in dog at 1 mg/kg, iv; format: ADME, organism-based, Canis lupus familiaris; details: in vivo
# Rattus norvegicus [19] = test: Analgesic activity in […]-induced po dosed rat joint pain model assessed as inhibition of differential weight bearing measured 30 mins post dose; format: functional, organism-based
# [20] = Oral bioavailability in dog at 5 mg/kg; format: ADME, organism-based, Canis lupus familiaris; details: in vivo
# [21] = molecular target: Adenosine receptor A3 (Homo sapiens) (UniProt P0DMS8); test: Inhibition of human adenosine A3 receptor at 10 uM
# Cytochrome P450 2B6 = Cytochrome P450 2B6 (Homo sapiens, UniProt P20813); test: Inhibition of CYP2B6 (unknown origin); format: ADME
# Cytochrome P450 1A2 = Cytochrome P450 1A2 (Homo sapiens, UniProt P05177); test: Inhibition of CYP1A2 (unknown origin); format: ADME
# [22] = molecular target: Histamine H1 receptor (Homo sapiens) (UniProt P35367); test: Inhibition of human histamine H1 receptor at 10 uM
# [23] = molecular target: L-type calcium channel, dihydropyridine binding site (Homo sapiens, UniProt O60840+Q01668+Q13698+Q13936); test: Inhibition of L-type calcium channel dihydropyridine binding site (unknown origin) at 10 uM; format: protein assay
# Cytochrome P450 2C19 = Cytochrome P450 2C19 (Homo sapiens, UniProt P33261); test: Inhibition of CYP2C19 (unknown origin); format: ADME
# [24] = molecular target: Adrenergic receptor alpha-1 (Rattus norvegicus) (UniProt P15823+P23944+P43140); test: Inhibition of rat alpha-1 adrenergic receptor at 10 uM
# [25] = molecular target: Beta-1 adrenergic receptor (Homo sapiens) (UniProt P08588); test: Inhibition of human beta-1 adrenergic receptor at 10 uM
# Cytochrome P450 2D6 = Cytochrome P450 2D6 (Homo sapiens, UniProt P10635); test: Inhibition of CYP2D6 (unknown origin); format: ADME
# [26] = molecular target: D(2) dopamine receptor (Homo sapiens) (UniProt P14416); test: Inhibition of human dopamine D2s receptor at 10 uM
# [27] = molecular target: Prostaglandin E2 receptor EP1 subtype (Homo sapiens, UniProt P34995); test: Binding affinity to human EP1 receptor
# [28] = molecular target: Mu-type opioid receptor (Homo sapiens) (UniProt P35372); test: Inhibition of human mu opoid receptor at 10 uM
# Cytochrome P450 2C9 = Cytochrome P450 2C9 (Homo sapiens, UniProt P11712); test: Inhibition of CYP2C9 (unknown origin); format: ADME
# [29] = molecular target: D(1A) dopamine receptor (Homo sapiens) (UniProt P21728); test: Inhibition of human dopamine D1 receptor at 10 uM
# [30] = Volume of distribution at steady state in rat at 1 mg/kg, iv and 5 mg/kg, po; format: ADME, organism-based; details: in vivo, read-out: Vdss
# [31] = molecular target: Voltage-gated inwardly rectifying potassium channel KCNH2 (Homo sapiens, UniProt Q12809); test: Displacement of [3H]astemizole from human ERG upto 100 uM
# Cytochrome P450 2C8 = Cytochrome P450 2C8 (Homo sapiens, UniProt P10632); test: Inhibition of CYP2C8 (unknown origin); format: ADME
# Rattus norvegicus [32] = species on record: Rattus norvegicus; test: Inhibition of rat chloride channel at 10 uM
# Cytochrome P450 3A4 = Cytochrome P450 3A4 (Homo sapiens, UniProt P08684); test: Inhibition of CYP3A4 (unknown origin); format: ADME
# [33] = Half life in rat at 5 mg/kg, po; format: ADME, organism-based; details: in vivo
# [34] = molecular target: Prostaglandin E2 receptor EP2 subtype (Homo sapiens, UniProt P43116); test: Binding affinity to human EP2 receptor
# Rattus norvegicus [35] = test: Antiinflammatory activity in adjuvant-induced arthritis rat model assessed as inhibition of paw swelling at 10 and 30 mg/kg administered 15 days post adjuvant challenge; format: functional, organism-based
# [36] = molecular target: Adrenergic receptor alpha-2 (Rattus norvegicus) (UniProt P22086+P19328+P22909); test: Inhibition of rat alpha-2 adrenergic receptor at 10 uM
# [37] = Half life in dog at 5 mg/kg, po; format: ADME, organism-based, Canis lupus familiaris; details: in vivo
# [38] = molecular target: L-type calcium channel, diltiazem binding site (Homo sapiens, UniProt O60840+Q01668+Q13698+Q13936); test: Inhibition of L-type calcium channel diltiazem binding site (unknown origin) at 10 uM; format: protein assay
# [39] = Cmax in dog at 5 mg/kg, po; format: ADME, organism-based, Canis lupus familiaris; design: dose 5 mg/kg, route oral; details: in vivo
# [40] = molecular target: Beta-2 adrenergic receptor (Homo sapiens) (UniProt P07550); test: Inhibition of human beta-2 adrenergic receptor at 10 uM
# [41] = Oral bioavailability in rat; format: ADME, organism-based; details: in vivo
# Rattus norvegicus [42] = test: Antiinflammatory activity in adjuvant-induced arthritis rat model assessed as inhibition of paw swelling at 10 mg/kg administered 15 days post adjuvant challenge; format: functional, organism-based
# T1 sequence (P35408 whole entry): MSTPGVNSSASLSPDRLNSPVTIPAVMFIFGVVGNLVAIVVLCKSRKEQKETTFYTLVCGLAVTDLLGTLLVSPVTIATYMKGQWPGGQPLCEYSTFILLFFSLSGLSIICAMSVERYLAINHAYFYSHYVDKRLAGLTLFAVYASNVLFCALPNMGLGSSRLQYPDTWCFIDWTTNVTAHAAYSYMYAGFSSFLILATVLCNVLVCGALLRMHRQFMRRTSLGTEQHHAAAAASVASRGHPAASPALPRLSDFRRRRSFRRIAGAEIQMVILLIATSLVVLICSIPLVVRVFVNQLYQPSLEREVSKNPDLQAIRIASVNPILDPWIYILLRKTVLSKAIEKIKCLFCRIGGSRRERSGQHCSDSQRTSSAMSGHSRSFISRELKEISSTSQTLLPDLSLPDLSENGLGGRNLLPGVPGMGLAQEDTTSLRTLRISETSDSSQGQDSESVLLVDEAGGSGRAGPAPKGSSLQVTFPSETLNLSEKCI
# Prostaglandin E2 receptor EP1 subtype, sequence (P34995 whole entry): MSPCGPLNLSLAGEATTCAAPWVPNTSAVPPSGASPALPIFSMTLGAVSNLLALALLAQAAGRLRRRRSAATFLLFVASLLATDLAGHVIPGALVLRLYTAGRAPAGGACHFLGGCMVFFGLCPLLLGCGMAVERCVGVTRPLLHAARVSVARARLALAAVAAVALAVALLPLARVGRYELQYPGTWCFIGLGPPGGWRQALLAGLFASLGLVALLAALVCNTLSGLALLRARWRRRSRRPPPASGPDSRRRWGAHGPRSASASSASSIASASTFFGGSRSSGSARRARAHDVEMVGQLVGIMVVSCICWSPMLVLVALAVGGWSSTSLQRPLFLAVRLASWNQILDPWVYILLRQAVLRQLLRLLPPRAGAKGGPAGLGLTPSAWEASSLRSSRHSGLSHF
# Prostaglandin E2 receptor EP2 subtype, sequence (P43116 whole entry): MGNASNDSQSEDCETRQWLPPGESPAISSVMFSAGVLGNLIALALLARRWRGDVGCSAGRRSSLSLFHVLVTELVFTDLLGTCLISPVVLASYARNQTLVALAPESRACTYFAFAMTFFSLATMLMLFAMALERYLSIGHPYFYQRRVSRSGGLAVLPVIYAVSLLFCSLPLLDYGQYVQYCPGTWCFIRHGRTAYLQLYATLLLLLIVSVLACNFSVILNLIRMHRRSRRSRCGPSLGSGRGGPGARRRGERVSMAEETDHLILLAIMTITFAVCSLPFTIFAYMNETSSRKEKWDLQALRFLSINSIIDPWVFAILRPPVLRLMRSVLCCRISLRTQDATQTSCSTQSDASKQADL
# Prostaglandin E2 receptor EP3 subtype, sequence (P43115 whole entry): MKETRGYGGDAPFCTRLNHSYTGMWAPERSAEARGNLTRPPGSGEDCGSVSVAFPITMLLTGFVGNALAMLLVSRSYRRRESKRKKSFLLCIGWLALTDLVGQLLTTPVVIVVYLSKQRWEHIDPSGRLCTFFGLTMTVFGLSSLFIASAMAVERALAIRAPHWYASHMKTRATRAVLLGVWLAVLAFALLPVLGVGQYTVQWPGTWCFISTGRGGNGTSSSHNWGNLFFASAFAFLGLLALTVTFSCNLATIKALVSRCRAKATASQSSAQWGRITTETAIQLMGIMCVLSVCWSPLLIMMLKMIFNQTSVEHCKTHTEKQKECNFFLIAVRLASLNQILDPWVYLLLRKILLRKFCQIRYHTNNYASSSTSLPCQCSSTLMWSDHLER
# Cytochrome P450 2C19, sequence (P33261 whole entry): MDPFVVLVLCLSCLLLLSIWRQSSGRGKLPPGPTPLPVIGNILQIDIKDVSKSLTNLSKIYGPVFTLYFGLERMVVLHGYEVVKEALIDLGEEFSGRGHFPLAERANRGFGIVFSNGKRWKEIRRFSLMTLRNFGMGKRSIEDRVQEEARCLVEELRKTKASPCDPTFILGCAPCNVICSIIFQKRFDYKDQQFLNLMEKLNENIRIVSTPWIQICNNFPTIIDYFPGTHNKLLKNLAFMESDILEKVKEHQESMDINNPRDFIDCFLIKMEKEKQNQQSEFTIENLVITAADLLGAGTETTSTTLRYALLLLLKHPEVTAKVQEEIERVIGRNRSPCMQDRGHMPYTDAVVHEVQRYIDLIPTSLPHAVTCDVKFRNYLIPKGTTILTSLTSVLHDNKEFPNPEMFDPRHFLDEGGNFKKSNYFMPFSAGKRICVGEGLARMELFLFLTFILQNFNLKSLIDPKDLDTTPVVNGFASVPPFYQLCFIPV
# Cytochrome P450 2B6, sequence (P20813 whole entry): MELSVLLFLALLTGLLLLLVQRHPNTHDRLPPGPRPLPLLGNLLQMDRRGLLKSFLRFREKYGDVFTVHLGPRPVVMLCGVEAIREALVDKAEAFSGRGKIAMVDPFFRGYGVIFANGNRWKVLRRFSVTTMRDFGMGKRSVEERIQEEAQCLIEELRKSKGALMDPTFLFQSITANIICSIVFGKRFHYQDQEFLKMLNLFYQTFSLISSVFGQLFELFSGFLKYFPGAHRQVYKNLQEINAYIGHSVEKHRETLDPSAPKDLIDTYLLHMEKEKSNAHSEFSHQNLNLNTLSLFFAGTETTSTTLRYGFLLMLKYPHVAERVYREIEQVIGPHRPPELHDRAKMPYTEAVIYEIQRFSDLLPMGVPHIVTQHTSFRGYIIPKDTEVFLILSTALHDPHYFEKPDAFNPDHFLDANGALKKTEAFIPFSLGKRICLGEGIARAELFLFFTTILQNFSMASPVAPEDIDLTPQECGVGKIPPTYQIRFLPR
# Beta-2 adrenergic receptor (Homo sapiens), sequence (P07550 whole entry, looked up): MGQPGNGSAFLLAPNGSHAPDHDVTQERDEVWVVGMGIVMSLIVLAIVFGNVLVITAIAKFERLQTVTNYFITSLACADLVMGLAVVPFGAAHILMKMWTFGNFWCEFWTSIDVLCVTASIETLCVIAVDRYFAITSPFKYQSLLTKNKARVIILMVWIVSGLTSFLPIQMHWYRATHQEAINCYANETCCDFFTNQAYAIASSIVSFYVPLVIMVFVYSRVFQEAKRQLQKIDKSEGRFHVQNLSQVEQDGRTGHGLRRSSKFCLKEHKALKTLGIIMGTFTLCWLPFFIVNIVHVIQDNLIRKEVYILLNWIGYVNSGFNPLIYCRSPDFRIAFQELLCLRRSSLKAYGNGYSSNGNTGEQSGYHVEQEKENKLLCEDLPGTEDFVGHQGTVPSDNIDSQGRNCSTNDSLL
# Acetylcholinesterase (Homo sapiens), sequence (P22303 whole entry): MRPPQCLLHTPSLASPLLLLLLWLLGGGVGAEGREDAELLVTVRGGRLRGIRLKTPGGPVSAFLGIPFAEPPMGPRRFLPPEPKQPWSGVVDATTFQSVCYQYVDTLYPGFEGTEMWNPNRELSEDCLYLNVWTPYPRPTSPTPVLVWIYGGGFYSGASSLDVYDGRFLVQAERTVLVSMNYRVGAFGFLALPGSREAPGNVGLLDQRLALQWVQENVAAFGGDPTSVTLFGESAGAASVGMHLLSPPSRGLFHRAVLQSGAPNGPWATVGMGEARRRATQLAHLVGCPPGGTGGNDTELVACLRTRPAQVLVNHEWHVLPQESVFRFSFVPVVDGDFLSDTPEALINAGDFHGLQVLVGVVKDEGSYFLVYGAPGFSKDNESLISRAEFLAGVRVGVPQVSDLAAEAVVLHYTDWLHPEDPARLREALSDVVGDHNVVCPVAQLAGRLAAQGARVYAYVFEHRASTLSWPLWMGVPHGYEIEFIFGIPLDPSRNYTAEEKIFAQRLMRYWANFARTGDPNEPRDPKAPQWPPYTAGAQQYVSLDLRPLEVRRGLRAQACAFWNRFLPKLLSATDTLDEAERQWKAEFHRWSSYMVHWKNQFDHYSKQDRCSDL
# Beta-1 adrenergic receptor (Homo sapiens), sequence (P08588 whole entry, looked up): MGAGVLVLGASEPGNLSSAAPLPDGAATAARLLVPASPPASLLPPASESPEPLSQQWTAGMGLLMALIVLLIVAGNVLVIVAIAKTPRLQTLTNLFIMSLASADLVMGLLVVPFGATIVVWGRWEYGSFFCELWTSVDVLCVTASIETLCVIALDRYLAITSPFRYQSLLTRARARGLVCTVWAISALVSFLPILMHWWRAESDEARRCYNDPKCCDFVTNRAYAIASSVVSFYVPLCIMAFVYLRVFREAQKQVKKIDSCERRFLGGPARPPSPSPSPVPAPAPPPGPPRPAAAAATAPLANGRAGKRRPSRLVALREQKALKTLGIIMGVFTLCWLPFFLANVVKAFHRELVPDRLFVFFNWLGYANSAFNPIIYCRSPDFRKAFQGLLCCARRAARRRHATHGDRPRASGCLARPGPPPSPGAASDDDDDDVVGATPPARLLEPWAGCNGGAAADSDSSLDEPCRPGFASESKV
# Muscarinic acetylcholine receptor M2 (Homo sapiens), sequence (P08172 whole entry): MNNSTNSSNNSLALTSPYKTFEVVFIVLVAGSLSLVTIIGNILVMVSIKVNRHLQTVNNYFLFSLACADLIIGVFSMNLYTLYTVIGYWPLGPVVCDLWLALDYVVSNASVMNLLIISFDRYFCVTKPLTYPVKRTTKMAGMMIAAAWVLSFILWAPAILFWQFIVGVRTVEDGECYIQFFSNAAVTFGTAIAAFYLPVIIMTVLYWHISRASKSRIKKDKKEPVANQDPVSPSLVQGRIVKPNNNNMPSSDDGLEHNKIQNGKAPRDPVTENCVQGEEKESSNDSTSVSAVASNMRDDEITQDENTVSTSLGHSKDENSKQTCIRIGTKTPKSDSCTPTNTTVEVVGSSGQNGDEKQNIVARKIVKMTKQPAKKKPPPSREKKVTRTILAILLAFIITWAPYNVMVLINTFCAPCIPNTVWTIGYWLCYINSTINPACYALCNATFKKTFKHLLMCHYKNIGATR
# Adenosine receptor A3 (Homo sapiens), sequence (P0DMS8 whole entry): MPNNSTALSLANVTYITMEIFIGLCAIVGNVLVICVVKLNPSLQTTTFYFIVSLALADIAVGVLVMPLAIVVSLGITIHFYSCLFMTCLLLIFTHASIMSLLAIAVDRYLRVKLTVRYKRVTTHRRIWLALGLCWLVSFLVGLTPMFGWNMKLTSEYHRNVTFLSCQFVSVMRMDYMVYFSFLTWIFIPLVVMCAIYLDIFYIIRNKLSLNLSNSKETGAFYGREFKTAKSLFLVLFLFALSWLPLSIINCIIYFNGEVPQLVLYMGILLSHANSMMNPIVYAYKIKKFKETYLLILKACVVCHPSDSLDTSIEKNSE
compound,measurement,setting,value
Cc1ccc(C(=O)O)c(C)c1NC(=O)c1cc(-c2cccc(CO)c2)ccc1F,pIC50,[1],8.35
same,solubility at 20 h,[2],709 µg/mL
same,pIC50,[3],7.14
same,F,Rattus norvegicus [4],11%
same,AUC,Rattus norvegicus [5],994 ng·h/mL
Cc1cc(C(=O)O)cc(C)c1NC(=O)c1cc(-c2cccc(CO)c2)ccc1F,clearance,[6],91 mL/min/kg
same,pIC50,[1],9.14
same,solubility at 20 h,[2],774 µg/mL
same,pIC50,[3],7.32
same,bioavailability,[7],12%
same,AUC,[8],105 ng·h/mL
Cc1ccc(-c2cccc(CO)c2)cc1C(=O)Nc1c(C)ccc(C(=O)O)c1C,clearance,[6],15 mL/min/kg
same,solubility at 20 h,[2],783 µg/mL
same,pIC50,[3],7.23
same,bioavailability,[7],7%
same,AUC,[8],375 ng·h/mL
Cc1ccc(-c2cccc(CO)c2)nc1C(=O)Nc1c(C)ccc(C(=O)O)c1C,inhibition,[9],11%
same,inhibition,Rattus norvegicus [10],Active
same,clearance,[6],2.2 mL/min/kg
same,Cmax,[11],1640 ng/mL
same,pIC50,[12],< 4.60
same,pKi,[12],< 4.85
same,Vd,[13],0.97 L/kg
same,inhibition,[14],-2%
same,inhibition,[15],-1%
same,inhibition at 10 µM,[16],-10%
same,AUC,[17],10900 ng·h/mL
same,clearance,[18],3.7 mL/min/kg
same,inhibition,Rattus norvegicus [19],Dose-dependent effect
same,bioavailability,[20],48%
same,inhibition,[21],-7%
same,pIC50,Cytochrome P450 2B6,< 5.00
same,pIC50,Cytochrome P450 1A2,< 5.00
same,inhibition,[22],5%
same,inhibition at 10 µM,[23],-46%
same,pIC50,Cytochrome P450 2C19,< 5.00
same,inhibition,[24],-3%
same,inhibition,[25],1%
same,solubility at 20 h,[2],242 µg/mL
same,pIC50,Cytochrome P450 2D6,< 5.00
same,pIC50,[3],7.41
same,inhibition,[26],-3%
same,pIC50,[27],< 4.60
same,pKi,[27],< 4.76
same,inhibition,[28],-6%
same,pIC50,Cytochrome P450 2C9,< 5.00
same,inhibition,[29],0%
same,Vd,[30],0.16 L/kg
same,inhibition (INH),[31],Not Active
same,pIC50,Cytochrome P450 2C8,< 5.00
same,inhibition,Rattus norvegicus [32],-6%
same,pIC50,Cytochrome P450 3A4,< 5.00
same,half-life,[33],2.1 h
same,pIC50,[34],< 4.60
same,pKi,[34],< 4.72
same,inhibition,Rattus norvegicus [35],Active
same,inhibition,[36],-5%
same,half-life,[37],1.1 h
same,inhibition at 10 µM,[38],-7%
same,Cmax,[39],3820 ng/mL
same,bioavailability,[7],22%
same,inhibition,[40],9%
same,AUC,[8],8520 ng·h/mL
Cc1ccc(-c2cccc(CO)c2)cc1C(=O)Nc1c(C)cc(C(=O)O)cc1C,clearance,[6],71 mL/min/kg
same,pIC50,[1],9.55
same,solubility at 20 h,[2],31 µg/mL
same,pIC50,[3],7.73
same,bioavailability,[7],13%
same,AUC,[8],88 ng·h/mL
Cc1ccc(-c2cccc(Cl)c2)nc1C(=O)Nc1c(C)ccc(C(=O)O)c1C,pIC50,[1],8.81
same,pIC50,[3],6.20
Cc1ccc(C(=O)O)c(C)c1NC(=O)c1cc(-c2cccc(Cl)c2)cc2ccccc12,bioavailability,[41],100%
Cc1ccc(C(=O)O)c(C)c1NC(=O)c1nc(-c2cccc(CO)c2)ccc1C(F)(F)F,clearance,[6],7 mL/min/kg
same,pIC50,[1],8.71
same,solubility at 20 h,[2],29 µg/mL
same,pIC50,[3],7.23
same,bioavailability,[7],13%
same,AUC,[8],1540 ng·h/mL
Cc1ccc(-c2cccc(CO)c2)nc1C(=O)Nc1c(C)cc(C(=O)O)cc1C,clearance,[6],7 mL/min/kg
same,pIC50,[1],9.17
same,solubility at 20 h,[2],14 µg/mL
same,pIC50,[3],7.25
same,bioavailability,[7],36%
same,AUC,[8],4330 ng·h/mL
Cc1cc(C(=O)O)cc(C)c1NC(=O)c1nc(-c2cccc(CO)c2)ccc1C(F)(F)F,clearance,[6],54 mL/min/kg
same,pIC50,[1],9.17
same,solubility at 20 h,[2],23 µg/mL
same,pIC50,[3],6.92
same,bioavailability,[7],16%
same,AUC,[8],243 ng·h/mL
O=C(O)Cc1ccccc1Nc1c(Cl)cccc1Cl,inhibition,Rattus norvegicus [10],Active
same,inhibition,Rattus norvegicus [42],Active
Cc1ccc(C(=O)O)c(C)c1NC(=O)c1cc(-c2cccc(CO)c2)cc2ccccc12,bioavailability,[41],6%
